Experiments:
[1] = test system: cells not expressing the EGFP-NK2R receptor; assay: Calcium response on cells not expressing the receptor; format: cell-based; set-up: key: ns: not significant; ?: uniterpretable; details: Table 1
receptor EGFP-NK2R [2] = target: T1, receptor EGFP-NK2R (UniProt P16610); assay: Dissociation kinetics of NKA-Bo bound to EGFP-NK2R by fluorescence energy transfer; format: binding; set-up: % al (max): maximum value observed for the increase in amplitude of the rapid dissociation rate; ns = n; other: 20 nM of NK; % al (at 10 μM); other: compou; fused on or other part: EGFP fused to the receptor as FRET donor; details: for EC50: read-out: EC50 (μM): concentration of compound causing a 50% increase (relative to the maximum value) in the percentage of the amplitude of the rapid dissociation rate; for fraction of receptors in the low-affinity state: at 100 μM of effector, approximately 25% in the absence of effector
T1 sequence (P16610 1-390): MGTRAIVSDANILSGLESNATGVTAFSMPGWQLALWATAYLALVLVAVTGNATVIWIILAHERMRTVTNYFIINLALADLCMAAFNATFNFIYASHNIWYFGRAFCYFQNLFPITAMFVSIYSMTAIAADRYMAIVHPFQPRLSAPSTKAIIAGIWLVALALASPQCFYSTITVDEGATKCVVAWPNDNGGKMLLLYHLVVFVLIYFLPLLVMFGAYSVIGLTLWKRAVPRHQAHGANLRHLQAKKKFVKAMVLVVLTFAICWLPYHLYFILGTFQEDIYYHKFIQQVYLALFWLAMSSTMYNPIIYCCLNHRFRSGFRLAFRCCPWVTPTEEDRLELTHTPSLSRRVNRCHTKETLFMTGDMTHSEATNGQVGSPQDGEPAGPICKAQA
Procedure: Dissociation (FIG. 4B): HEK 293 cells expressing the receptor EGFP-NK2R are put into suspension at a concentration of 1,000,000 cells/ml in Hepes physiological buffer (in mM: 137.5 NaCl; 1.25 MgCl2; 1.25 CaCl2; 6 KCl; 5.6 glucose; 10 Hepes; 0.4 NaH2PO4; 1% BSA (w/v); pH 7.4) and arranged in a 1 ml cuvette equipped with a magnetic stirrer on the cuvette holder of a SPEX fluorolog 3 spectrofluorimeter.
(§1) The amplitude of each relaxation is then given by the adjustment of the experimental traces.

receptor EGFP-NK2R [3] = target: T1, receptor EGFP-NK2R; assay: Reversion of the binding of NKA-Bo to EGFP-NK2R by fluorescence energy transfer; set-up: % al (max): maximum value observed for the increase in amplitude of the rapid dissociation rate; ns = n; other: 20 nM of NK; % al (at 10 μM); other: compou; fused on or other part: EGFP fused to the receptor as FRET donor; details: for IC50: read-out: IC50 (μM): concentration of compound for which a 50% reduction is observed in the binding of NKA-Bo, 20 nM of NKA-Bo, EGFP-NK2R receptor
From the text: as §1

receptor EGFP-NK2R [4] = target: T1, receptor EGFP-NK2R; assay: Association kinetics of NKA-Bo with EGFP-NK2R by fluorescence energy transfer (rapid mixing); format: binding; set-up: % al (max): maximum value observed for the increase in amplitude of the rapid dissociation rate; ns = n; other: 20 nM of NK; % al (at 10 μM); other: compou; fused on or other part: EGFP fused to the receptor as FRET donor
From the text: Association (FIG. 4A): HEK 293 cells expressing the receptor EGFP-NK2R (NK2R marked with GFP) are put into suspension at a concentration of 2,000,000 cells/ml in Hepes physiological buffer (in mM: 137.5 NaCl; 1.25 MgCl2; 1.25 CaCl2; 6 KCl; 5.6 glucose; 10 Hepes; 0.4 NaH2PO4; 1% BSA (w/v); pH 7.4) and arranged in one of the reservoirs of the rapid mixing device. […] The observation chamber is arranged in a SPEX fluorolog 3 spectrofluorimeter. The temperature of the reservoir of the syringes as well as of the mixing and observation chamber is fixed at 21° C. The excitation wavelength of the observation chamber is fixed at 470 nm, and the fluorescence emission wavelength is fixed at 510 nm. The sampling frequency of the experimental points is fixed at 50 Hz (1 point every 20 msec). The content of the reservoirs is driven towards the mixing and observation chamber using a pneumatic device allowing a flow rate of 4 ml/sec and the evolution of the mixture is recorded continuously from the moment of stopping of the thrust of the pistons of the reservoirs. The reaction of association of NKA-Bo with the receptor EGFP-NK2R is detected in the form of a reduction in the intensity of fluorescence of the GFP carried by the receptor NK2R. The experimental trace is adjusted by a multiexponential curve of type y=λ1 exp (−k1app×T)+λ2 exp (−k2app×T)+“straight”, where λ1 and λ2 are the amplitudes of the rapid and slow relaxations, k1app and k2app are the apparent rate constants of rapid and slow association, T is time and “straight” is a mathematical correction of the signal drift. The values of λ1, λ2, k1app, k2app for a final concentration of NKA-BO of 100 nM are respectively 67%; 32%; 0.6 sec^−1 and 0.03 sec^−1. The correlation coefficient of the adjustment of the experimental curve is R=0.989.
The rapid binding of NKA-Bo, recorded at a concentration of 20 nM using the rapid mixing equipment, is broken down into a sum of two exponentials the rates (kapp) of which differ by a factor of 10. The rapid binding of NKA-Bo (kapp=0.095 sec^−1) represents 44% of the total binding signal, in the absence of A11 (50 μM), whereas it represents 52% of the total signal in the presence of A11. The slow binding is carried out in both cases with an apparent rate (kapp) equal to 0.0095 sec^−1, and an amplitude equal to […] in the absence of A11, and 48% in the presence of A11.

[5] = Table 1, dissociation of NKA-Bo from EGFP-NK2R, ns = not significant
[6] = 20 nM NKA-Bo, 10 μM SR 48968, no effector
[7] = in the presence of 50 μM compound, dissociation by non-fluorescent NKA

Compound	Ca Rep.: ability to evoke a calcium response on cells not expressing the EGFP-NK2R receptor [1]	% al (max): maximum value observed for the increase in amplitude of the rapid dissociation rate (receptor EGFP-NK2R [2]; Table 1, ns = not significant)	EC50 (receptor EGFP-NK2R [2]; [5])	IC50 (receptor EGFP-NK2R [3])	other results
O=C(CC(Nc1ncc(-c2ccccc2)s1)c1ccccc1)c1ccccc1 (stereo not drawn) [F7, 1,3-Diphenyl-3-(5-phenyl-thiazol-2-ylamino)-propan-1-one]	ns	≧60%	≥ 50 µM	90 µM	–
COC(=O)CN(Cc1ccccc1)Cc1ccc2ccccc2c1 [compound 806, methyl [benzyl(2-naphtylmethyl)amino]acetate]	ns	90%	10 to 20 µM	> 200 µM	–
CSCC[C@H](NC(=O)[C@H](CC(C)C)NC(=O)CNC(=O)[C@@H](NC(=O)[C@H](Cc1ccccc1)NC(=O)[C@H](CO)NC(=O)[C@H](CC(=O)O)NC(=O)[C@@H](NC(=O)[C@H](CCCCN)NC(=O)[C@H](Cc1c[nH]cn1)NC(=O)CCc1ccc2n1[B-](F)(F)[N+]1=C(c3ccccc3)C=C(c3ccccc3)C1=C2)[C@@H](C)O)C(C)C)C(N)=O [NKA-Bo]	–	–	–	–	λ1, amplitude of rapid dissociation of NKA-Bo (receptor EGFP-NK2R [2]; [6]): 40%; λ2, amplitude of slow dissociation of NKA-Bo (receptor EGFP-NK2R [2]; [6]): 58%; k1app, apparent rate constant of rapid association (receptor EGFP-NK2R [4]; NKA-BO 100 nM final, 21° C.): 0.6 s⁻¹; k2app, apparent rate constant of slow association (receptor EGFP-NK2R [4]; NKA-BO 100 nM final, 21° C.): 0.03 s⁻¹; λ1, amplitude of the rapid association relaxation (receptor EGFP-NK2R [4]; NKA-BO 100 nM final, 21° C.): 67%; λ2, amplitude of the slow association relaxation (receptor EGFP-NK2R [4]; NKA-BO 100 nM final, 21° C.): 32%; kapp of the rapid binding of NKA-Bo (receptor EGFP-NK2R [4]; NKA-Bo 20 nM): 0.095 s⁻¹; kapp of the slow binding of NKA-Bo (receptor EGFP-NK2R [4]; NKA-Bo 20 nM, with or without A11): 0.0095 s⁻¹
Nc1ccc(CNCc2ccc3ccccc3c2)cc1 [H3, 4-{[(Naphthalen-2-ylmethyl)-amino]-methyl}-phenylamine]	ns	ns	–	> 50 µM	EC50 (μM): concentration of compound causing a 50% increase (relative to the maximum value) in the percentage of the amplitude of the rapid dissociation rate (receptor EGFP-NK2R [2]; [5]): ns
N#CCN(Cc1ccc(Cl)c(Cl)c1)Cc1ccc2ccccc2c1 [NP246 or 803, [(3,4-dichlorobenzyl)(2-naphthylmethyl)amino]acetonitrile]	ns	60-70%	10 to 30 µM	> 500 µM	fraction of receptors in the low-affinity state (receptor EGFP-NK2R [2]): ~100%
NC(=O)CN(Cc1ccc2ccccc2c1)c1ccccc1 [H10, 2-(Naphthalen-2-ylmethyl-phenyl-amino)-acetamide]	ns	>60%	> 50 µM	≥ 100 µM	–
N#CCN(Cc1ccc(Cl)cc1)Cc1ccc2ccccc2c1 [NP234 or 801, [(4-chlorobenzyl)(2-naphthylmethyl)amino]acetonitrile]	ns	60-70%	5 to 10 µM	110 µM	–
N#CCN(Cc1ccc(N)cc1)Cc1ccc2ccccc2c1 [A11, [(4-Amino-benzyl)-naphthalen-2-ylmethyl-amino]-acetonitrile]	ns	≧90%	38 to 44 µM	–	fraction of receptors in the low-affinity state (receptor EGFP-NK2R [2]): ~100%; effect on the dissociation kinetics of NKA-Bo (receptor EGFP-NK2R [2]; dissociation by non-fluorescent NKA in the presence of compound): accelerating the dissociation rate; amplitude of the rapid dissociation of NKA-Bo (% of total signal) (receptor EGFP-NK2R [2]; [7]): 78%; amplitude of the slow dissociation of NKA-Bo (% of total signal) (receptor EGFP-NK2R [2]; [7]): 22%; rapid binding of NKA-Bo, % of the total binding signal (receptor EGFP-NK2R [4]; 20 nM NKA-Bo, in the presence of A11 (50 μM), 44% in its absence): 52%; slow binding of NKA-Bo, amplitude (receptor EGFP-NK2R [4]; 20 nM NKA-Bo, in the presence of A11 (50 μM), 66% in its absence): 48%; fraction of the NKA-Bo bound to its site displaced by the compound (receptor EGFP-NK2R [3]; 20 nM NKA-Bo, increasing concentration of compound, 100% = NKA 10 μM): 29%
N#CCN(Cc1ccc(N)cc1)Cc1cccc2ccccc12 [compound 804, [(4-aminobenzyl)(1-naphthylmethyl)amino]acetonitrile]	ns	≧80%	20 to 30 µM	> 100 µM	–
CCOC(=O)c1ccc(CN(CC#N)Cc2ccc3ccccc3c2)cc1 [G11, 4-[(Cyanomethyl-naphthalen-2-ylmethyl-amino)-methyl]-benzoic acid ethyl ester]	ns	70%	10 to 30 µM	> 100 µM	–
